Test results reported in the OligoGym collection.
Bases are written 5' to 3'; sugars and linkages follow in the same order, as letters with counts (s phosphorothioate, o phosphodiester; PS: all linkages phosphorothioate). The collection does not say whether C is 5-methylated. l = locked nucleic acid (LNA); d = 2'-deoxy (DNA)

target: Tau; experiment: rat primary cortical neurons, FLIPR, 25 uM ASO

Sequence | calcium oscillation score
CGACTTATCTATCCATCT (sugars l2 d12 l4, PS) | 45.8 % of control
TGCACCCACTTTCCTAAT (sugars l4 d12 l2, PS) | 56.2 % of control
TATTTATAGGTGCATA (sugars l3 d9 l4, PS) | 0 % of control
TGCAAACACTCCCTCT (sugars l2 d10 l4, PS) | 35.4 % of control
AGCTACTCACAACCCA (sugars l2 d11 l3, PS) | 65.6 % of control
CGCCCCACTTTTAATT (sugars l3 d11 l2, PS) | 58.3 % of control
CCCCATTTTTGACATAT (sugars l2 d12 l3, PS) | 73.1 % of control
CGCAGGCGCGAGCAGC (sugars l3 d10 l3, PS) | 20.7 % of control
TCATCACCAAGTCCCAA (sugars l2 d12 l3, PS) | 61.7 % of control
CCGAATTTACACCCAA (sugars l2 d10 l4, PS) | 79.1 % of control
TGTGATGCAGGAGTT (sugars l3 d9 l3, PS) | 70.5 % of control
GAACTGCGAGGAGCAG (sugars l3 d10 l3, PS) | 85.2 % of control
CATTCTATACTTCAGA (sugars l3 d9 l4, PS) | 79 % of control
CTGAAAGAGGGCAGCA (sugars l3 d10 l3, PS) | 36.8 % of control
CATCTTCCTTTAGTTTT (sugars l4 d10 l3, PS) | 50.9 % of control
CTTTGCTTTTACTGACCATG (sugars l3 d14 l3, PS) | 0 % of control
ACCCTTACACATAGCTTC (sugars l2 d13 l3, PS) | 53.9 % of control
TGGATCAGAGGGTCTG (sugars l3 d10 l3, PS) | 7.41 % of control
ACTGATCATAATCCTAC (sugars l4 d9 l4, PS) | 68.2 % of control
CTAATCCTGTGCTT (sugars l3 d8 l3, PS) | 26.1 % of control
TTATTTATTCTTTTTATTA (sugars l4 d11 l4, PS) | 45.2 % of control
CCAGCGTGATCTTCCA (sugars l3 d10 l3, PS) | 98 % of control
TCCTCCATTGTAACTAC (sugars l2 d11 l4, PS) | 63.9 % of control
GATGGATGTTGCCTAATGAG (sugars l3 d14 l3, PS) | 0 % of control
CTTAGCATCAGAGGTTTCAG (sugars l3 d14 l3, PS) | 7.41 % of control
CACCTTGCTCAGGTCA (sugars l3 d10 l3, PS) | 134 % of control

Sequence | calcium oscillation score
TTACACCATCCAAGTCAATG (sugars l3 d14 l3, PS) | 24.2 % of control
CTCCCTTTAATGCCAGGCCC (sugars l3 d14 l3, PS) | 20.1 % of control
GACGTTGCTAAGATCC (sugars l3 d10 l3, PS) | 22.6 % of control
TCCAGGGACCCAATCTTCGA (sugars l3 d14 l3, PS) | 0 % of control
CTCAAACTTAAATTTATT (sugars l4 d10 l4, PS) | 82.4 % of control
CCTCCTAGAACACAACA (sugars l3 d12 l2, PS) | 57 % of control
CCAGTGCCTGGCACAACAGG (sugars l3 d14 l3, PS) | 4.03 % of control
TCACTTTACACATTAAATTT (sugars l4 d12 l4, PS) | 62.5 % of control
CTCAGGTCAACTGGTT (sugars l3 d10 l3, PS) | 83.8 % of control
AATTTCTCTAATTGTCC (sugars l4 d9 l4, PS) | 69 % of control
CGGTAGGAAAGACATTTCCC (sugars l3 d14 l3, PS) | 10.1 % of control
GAAAGATGAAATTTGCTCTT (sugars l3 d14 l3, PS) | 100 % of control
GCATGCAGTTTATTCCTGGC (sugars l3 d14 l3, PS) | 4.03 % of control
GCAACAATCCAACCACT (sugars l3 d12 l2, PS) | 65.4 % of control
ATCCTTCTAAGTACAA (sugars l4 d8 l4, PS) | 85.6 % of control
TTTTACCAATTTGCCTA (sugars l2 d11 l4, PS) | 46.2 % of control
CAAACAATCCATTTATATTC (sugars l4 d12 l4, PS) | 55.5 % of control
GCCATATTTCAACTCTT (sugars l2 d11 l4, PS) | 57.7 % of control
TTGCAACTTTAACTCCA (sugars l4 d11 l2, PS) | 80.8 % of control
TACAGTTGGCCCTACCATAT (sugars l3 d14 l3, PS) | 52.4 % of control
ACGCACCAGGAACCTTCCAG (sugars l3 d14 l3, PS) | 36.7 % of control
TTATTTCCAAATTCACTTTT (sugars lldldldddddddddldlll, PS) | 106 % of control
TCTTCTAATATCCTTGC (sugars l3 d11 l3, PS) | 55.7 % of control
AAAAAGTCCATTCCCTC (sugars l3 d10 l4, PS) | 64 % of control
GATTAACCAATTAACC (sugars l3 d10 l3, PS) | ≥ 200 % of control
TATTTCCAAATTCACTTTTA (sugars lldldldddddddddldlll, PS) | 129 % of control

Sequence | calcium oscillation score
AGGAAATCCACAGGGA (sugars l3 d10 l3, PS) | 0 % of control
AGACTATTTGCACACTGCCG (sugars l3 d14 l3, PS) | 40.7 % of control
TTCCATCTTACTAATAG (sugars l4 d9 l4, PS) | 49.2 % of control
CTGTGCTTCAGGCCTT (sugars l3 d10 l3, PS) | 51 % of control
ACAAACCAACTCAACATTAC (sugars l4 d12 l4, PS) | 84.6 % of control
TAACCAGCTAGTGGTGCCAC (sugars l3 d14 l3, PS) | 18.4 % of control
CCAGCGTGATCTTC (sugars l3 d8 l3, PS) | 120 % of control
TTTTTTAACTCCCAACTCT (sugars l4 d13 l2, PS) | 95.7 % of control
GAAGGTGGCTCTGGGC (sugars l3 d10 l3, PS) | 0 % of control
CGAATTACCTAACCTC (sugars l3 d9 l4, PS) | 88.2 % of control
CGACTTATCTATCCATC (sugars l4 d10 l3, PS) | 50.5 % of control
ATTATTTACACTGTCCT (sugars l2 d11 l4, PS) | 78.1 % of control
CTTTGGCGTTCTCGCG (sugars l3 d10 l3, PS) | 93.5 % of control
TGTAATTTTCCCTACAT (sugars l3 d11 l3, PS) | 91.3 % of control
CCTCACTTTACACATTAAAT (sugars l4 d14 l2, PS) | 64.1 % of control
CATGTCGATGCTGCC (sugars l3 d9 l3, PS) | 89.5 % of control
AACATCTAAACACCTCAATC (sugars l4 d12 l4, PS) | 77.6 % of control
TCTTAATTCATTTAATTCTC (sugars l4 d12 l4, PS) | 87.1 % of control
TTCTTCCATCCTAAGTCA (sugars l3 d13 l2, PS) | 51.7 % of control
CAAACCACTCTTATTCTTTA (sugars l4 d13 l3, PS) | 68.5 % of control
TCAGGTCTGGCATGG (sugars l3 d9 l3, PS) | 0 % of control
CCATCAGTCTTATCTCC (sugars l1 d14 l2, PS) | 52.9 % of control
CCCAGCGTGATCTTCCATCA (sugars l3 d14 l3, PS) | 104 % of control
CCATGTCGATGCTGCC (sugars l3 d10 l3, PS) | 55.1 % of control
ATTTCCAAATTCACTTTTAC (sugars l2 d16 l2, PS) | ≥ 200 % of control
CCAGCGTGATCTTCCATCAC (sugars l5 d11 l4, PS) | 91.6 % of control
